The record followed here is patent US11753407B2, “Compounds for treating spinal muscular atrophy” (PTC Therapeutics, Inc., priority 2012, dated 2023).

Data set [1] has as its system SMN2 minigene mRNA (SMN2-A minigene) in HEK293H cells. Briefly: SMN2 minigene mRNA splicing RT-qPCR assay in cultured cells. Type of data set: cell-based, human. The note with it: Homo sapiens, HEK293-H; concentration increasing full length SMN2 mRNA 1.5-fold relative to vehicle-treated cells; HEK293H cells with SMN2-A minigene, 24 hours, 7-point concentration data; read-out: EC1.5x for production of full length SMN2 mRNA. The procedure, abridged:
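HEK293H cells stably carrying SMN2-A minigene treated with compounds (7-point, 3.16-fold dilutions, duplicates) for 24 h at 37 °C. Full-length exon 7-containing minigene mRNA measured by multiplex RT-qPCR with GAPDH, normalized and expressed relative to vehicle (modified ΔΔCt); EC1.5× is concentration giving 1.5-fold increase.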

The subject of data set [2] is Smn protein in SMA patient fibroblast cells (GM03813). Briefly: Smn protein assay in cultured cells (SMN HTRF). It counts as cell-based, human. The note with it: SMA patient fibroblast cells, 48 hours; for EC1.5x for Smn protein expression: 7-point concentration curve, SMN HTRF, concentration producing 1.5 times Smn protein vs DMSO vehicle control; for maximum fold (Fold) increase of Smn protein: 7-point concentration data, fold relative to vehicle control. The procedure, abridged: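 SMA patient fibroblasts (5,000/well, DMEM-10% FBS) treated 48 h at 37° C with 7-point, 3.16-fold compound series in triplicate; lysates read by SMN HTRF (665/620 nm ratio). Fold Smn increase over DMSO vehicle derived; EC1.5× is concentration giving 1.5-fold Smn, with maximum fold also reported.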
For orientation: Time-resolved FRET reads energy transfer from a long-lived donor to a nearby acceptor.

For `Cc1cn2nc(-c3cc(=O)n4cc(N5CCC(C)(N(C)C)CC5)ccc4n3)cc2c(C)n1` [Compound 706, 7-[4-(dimethylamino)-4-methylpiperidin-1-yl]-2-(4,6-dimethylpyrazolo[1,5-a]pyrazin-2-yl)-4H-pyrido[1,2-a]pyrimidin-4-one], the melting point lay within 237 to 239 °C. Besides, the EC (1.5-fold increase) in data set [1] was under 0.1 µM. Also, in data set [2], the “EC1.5x for Smn protein expression” value was “**** (an EC1.5x≤0.3 μM is indicated by four stars (****))” and the “maximum fold (Fold) increase of Smn protein” value (“maximum fold (Fold) increase” for short) is listed as “***** (a fold increase >1.65 is indicated by five stars (*****))”.

In turn, `Cc1cn2nc(-c3cc(=O)n4cc(N5CCN[C@H](C)C5)cc(C)c4n3)cc2c(C)n1` [Compound 509, 2-(4,6-dimethylpyrazolo[1,5-a]pyrazin-2-yl)-9-methyl-7-[(3R)-3-methylpiperazin-1-yl]-4H-pyrido[1,2-a]pyrimidin-4-one] yielded a melting point of 213 to 222 °C. Moreover, the EC (1.5-fold increase) in data set [1] was under 0.1 µM. For the same molecule, in data set [2], the “EC1.5x for Smn protein expression” value is “*** (an EC1.5× between >0.3 μM and ≤1 μM is indicated by three stars (***))”; the “maximum fold (Fold) increase” value is “**** (a fold increase between >1.5 and ≤1.65 is indicated by four stars (****))”.

In turn, `CCN(CC)C1CCN(c2cc(C)c3nc(-c4ccc(OC)c(OC)c4)cc(=O)n3c2)CC1` [Compound 435, 7-[4-(diethylamino)piperidin-1-yl]-2-(3,4-dimethoxyphenyl)-9-methyl-4H-pyrido[1,2-a]pyrimidin-4-one] came in with a melting point of 149 to 155 °C. Besides, in data set [1], the EC (1.5-fold increase) is 0.1 to 0.3 µM. The “maximum fold (Fold) increase” value in data set [2] is “*** (a fold increase between >1.35 and ≤1.5 is indicated by three stars (***))”.

Molecule `COc1ccc(-c2cc(=O)n3cc(C4=CCN(C5COC5)CC4)cc(C)c3n2)cc1OC` [Compound 386, 2-(3,4-dimethoxyphenyl)-9-methyl-7-[1-(oxetan-3-yl)-1,2,3,6-tetrahydropyridin-4-yl]-4H-pyrido[1,2-a]pyrimidin-4-one] displayed a melting point of 180 to 195 °C. Moreover, in data set [1], the EC (1.5-fold increase) lay in the range of 0.3 to 1 µM. The “maximum fold (Fold) increase” value in data set [2] is “* (A maximum fold increase of ≤1.2 is indicated by one star (*))”.

As for `COc1cccc(-c2cc(=O)n3cc(N4C[C@@H](C)N[C@@H](C)C4)ccc3n2)c1` [Compound 25, 7-[(3R,5S)-3,5-dimethylpiperazin-1-yl]-2-(3-methoxyphenyl)-4H-pyrido[1,2-a]pyrimidin-4-one], the melting point was in the range of 189 to 191 °C. Moreover, the EC (1.5-fold increase) in data set [1] was 1 to 3 µM. The “maximum fold (Fold) increase” value in data set [2] is reported as “* (A maximum fold increase of ≤1.2 is indicated by one star (*))”.

The molecule `COc1ccc(-c2cc(=O)n3cc(N4CCNCC4)ccc3n2)cc1` [Cpd 1, 2-(4-methoxyphenyl)-7-(piperazin-1-yl)-4H-pyrido[1,2-a]pyrimidin-4-one] showed a melting point of 182 to 184 °C. Further, in data set [1], the EC (1.5-fold increase) was in the range of 0.3 to 1 µM. For the same molecule, the “maximum fold (Fold) increase” value in data set [2] was “** (a fold increase between >1.2 and ≤1.35 is indicated by two stars (**))”.

In turn, `Cc1nc2ccc(-c3cc(=O)n4nc(C5CCNCC5)ccc4n3)cc2o1` [Compound 499, 2-(2-methyl-1,3-benzoxazol-6-yl)-7-(piperidin-4-yl)-4H-pyrimido[1,2-b]pyridazin-4-one] showed a melting point of 126 to 128 °C. Further, the EC (1.5-fold increase) in data set [1] is under 0.1 µM. In data set [2], the “EC1.5x for Smn protein expression” value is given as “**** (an EC1.5x≤0.3 μM is indicated by four stars (****))” and the “maximum fold (Fold) increase” value is “***** (a fold increase >1.65 is indicated by five stars (*****))”.

In turn, `Cc1cn2nc(-c3cc(=O)n4cc(N5CCC6C(CCN6CCO)C5)ccc4n3)cc2c(C)n1` (centres unmarked) [Compound 624, 2-(4,6-dimethylpyrazolo[1,5-a]pyrazin-2-yl)-7-[1-(2-hydroxyethyl)octahydro-5H-pyrrolo[3,2-c]pyridin-5-yl]-4H-pyrido[1,2-a]pyrimidin-4-one] returned a melting point of 184 to 187 °C. Further, the EC (1.5-fold increase) in data set [1] was under 0.1 µM. Moreover, in data set [2], the “EC1.5x for Smn protein expression” value is given as “**** (an EC1.5x≤0.3 μM is indicated by four stars (****))” and the “maximum fold (Fold) increase” value is listed as “***** (a fold increase >1.65 is indicated by five stars (*****))”.

`Cc1cn2cc(-c3cc(=O)n4nc(C5CCNCC5)ccc4n3)cc(C)c2n1` [Compound 691, 2-(2,8-dimethylimidazo[1,2-a]pyridin-6-yl)-7-(piperidin-4-yl)-4H-pyrimido[1,2-b]pyridazin-4-one] had a melting point of 215 to 217 °C. The EC (1.5-fold increase) in data set [1] is under 0.1 µM. In data set [2], the “EC1.5x for Smn protein expression” value was “**** (an EC1.5x≤0.3 μM is indicated by four stars (****))” and the “maximum fold (Fold) increase” value is recorded as “***** (a fold increase >1.65 is indicated by five stars (*****))”.

`Cc1nc2ccc(-c3cc(=O)n4nc(C5CCNCC5)ccc4n3)cc2s1.O=C(O)C(F)(F)F` [Cpd 380, 2-(2-methyl-1,3-benzothiazol-6-yl)-7-(piperidin-4-yl)-4H-pyrimido[1,2-b]pyridazin-4-one trifluoroacetate (1:1)] came in with a melting point of 230 to 235 °C. In addition, the EC (1.5-fold increase) in data set [1] is 0.1 to 0.3 µM. Also, in data set [2], the “EC1.5x for Smn protein expression” value is “*** (an EC1.5× between >0.3 μM and ≤1 μM is indicated by three stars (***))”; the “maximum fold (Fold) increase” value was “**** (a fold increase between >1.5 and ≤1.65 is indicated by four stars (****))”.

Regarding `Cc1cc2cc(-c3cc(=O)n4cc(N5C[C@@H](C)N[C@@H](C)C5)ccc4n3)oc2c(C)n1` [Compound 527, 2-(5,7-dimethylfuro[2,3-c]pyridin-2-yl)-7-[(3R,5S)-3,5-dimethylpiperazin-1-yl]-4H-pyrido[1,2-a]pyrimidin-4-one], the melting point lay within 260 to 262 °C. For the same molecule, the EC (1.5-fold increase) in data set [1] was under 0.1 µM. Further, in data set [2], the “EC1.5x for Smn protein expression” value is “**** (an EC1.5x≤0.3 μM is indicated by four stars (****))” and the “maximum fold (Fold) increase” value is reported as “***** (a fold increase >1.65 is indicated by five stars (*****))”.

`O=c1cc(-c2ccn3ccnc3c2)nc2ccc(N3CCNCC3)cn12` [Cpd 107, 2-(imidazo[1,2-a]pyridin-7-yl)-7-(piperazin-1-yl)-4H-pyrido[1,2-a]pyrimidin-4-one] returned a melting point of 258 to 270 °C. Further, the EC (1.5-fold increase) in data set [1] is 0.3 to 1 µM. Besides, the “maximum fold (Fold) increase” value in data set [2] is “** (a fold increase between >1.2 and ≤1.35 is indicated by two stars (**))”.

`CCc1cc(-c2cc(=O)n3cc(N4CCN5CCC[C@H]5C4)ccc3n2)cn2cc(C)nc12` [Compound 795, 2-(8-ethyl-2-methylimidazo[1,2-a]pyridin-6-yl)-7-[(8aS)-hexahydropyrrolo[1,2-a]pyrazin-2(1H)-yl]-4H-pyrido[1,2-a]pyrimidin-4-one] registered a melting point of 229 to 233 °C. The EC (1.5-fold increase) in data set [1] is under 0.1 µM. In data set [2], the “EC1.5x for Smn protein expression” value is “**** (an EC1.5x≤0.3 μM is indicated by four stars (****))” and the “maximum fold (Fold) increase” value is listed as “***** (a fold increase >1.65 is indicated by five stars (*****))”.

Regarding `Cc1cn2cc(-c3cc(=O)n4cc(C5CCN(C)CC5)ncc4n3)cc(C)c2n1` [Compound 592, 2-(2,8-dimethylimidazo[1,2-a]pyridin-6-yl)-7-(1-methylpiperidin-4-yl)-4H-pyrazino[1,2-a]pyrimidin-4-one], the melting point lay in the range of 249 to 251 °C. The EC (1.5-fold increase) in data set [1] was 0.1 to 0.3 µM. Moreover, in data set [2], the “EC1.5x for Smn protein expression” value was “*** (an EC1.5× between >0.3 μM and ≤1 μM is indicated by three stars (***))”; the “maximum fold (Fold) increase” value is listed as “***** (a fold increase >1.65 is indicated by five stars (*****))”.

With `Cc1cn2cc(-c3cc(=O)n4cc(N5CCNCC5)ccc4n3)ccc2n1` [Cpd 109, 2-(2-methylimidazo[1,2-a]pyridin-6-yl)-7-(piperazin-1-yl)-4H-pyrido[1,2-a]pyrimidin-4-one], the melting point fell in the range of 259 to 267 °C. For the same molecule, the EC (1.5-fold increase) in data set [1] was under 0.1 µM. For the same molecule, in data set [2], the “EC1.5x for Smn protein expression” value is “**** (an EC1.5x≤0.3 μM is indicated by four stars (****))”; the “maximum fold (Fold) increase” value is “**** (a fold increase between >1.5 and ≤1.65 is indicated by four stars (****))”.

On to `Cc1cn2nc(-c3cc(=O)n4cc(N5CC[C@@H](CN(C)C)C5)ccc4n3)cc2c(C)n1` [Compound 770, 7-{(3S)-3-[(dimethylamino)methyl]pyrrolidin-1-yl}-2-(4,6-dimethylpyrazolo[1,5-a]pyrazin-2-yl)-4H-pyrido[1,2-a]pyrimidin-4-one], for which the melting point is 239 to 241 °C. In addition, the EC (1.5-fold increase) in data set [1] was under 0.1 µM. In addition, in data set [2], the “EC1.5x for Smn protein expression” value is “*** (an EC1.5× between >0.3 μM and ≤1 μM is indicated by three stars (***))”; the “maximum fold (Fold) increase” value is “**** (a fold increase between >1.5 and ≤1.65 is indicated by four stars (****))”.

`COc1ccc(-c2cc(=O)n3cc(N4CCN[C@@H](C)C4)ccc3n2)cc1OC(F)F` [Compound 101, 2-[3-(difluoromethoxy)-4-methoxyphenyl]-7-[(3S)-3-methylpiperazin-1-yl]-4H-pyrido[1,2-a]pyrimidin-4-one] displayed a melting point of 167 to 169 °C. Besides, in data set [1], the EC (1.5-fold increase) lay within 0.3 to 1 µM. For the same molecule, in data set [2], the “maximum fold (Fold) increase” value is “*** (a fold increase between >1.35 and ≤1.5 is indicated by three stars (***))”.

Broadly, the melting point is the temperature of the solid-liquid transition.
